Data from ChEMBL document CHEMBL1649250, “Susceptibility of urinary tract bacteria to fosfomycin” (2009).
The source made the active and inactive calls. The rule behind the calls is not given here.

Legend:
Escherichia coli [1] = test: Antimicrobial activity against Escherichia coli obtained from urine sample of patient assessed as percent susceptible isolates by disk diffusion method; assay type: functional
Enterobacter sp. [2] = test: Antimicrobial activity against Enterobacter sp. obtained from urine sample of patient assessed as percent susceptible isolates by disk diffusion method; assay type: functional
Klebsiella pneumoniae [3] = test: Antimicrobial activity against Klebsiella pneumoniae obtained from urine sample of patient assessed as percent susceptible isolates by disk diffusion method; assay type: functional
Proteus mirabilis = test: Antimicrobial activity against Proteus mirabilis obtained from urine sample of patient assessed as percent susceptible isolates by disk diffusion method; assay type: functional
Salmonella sp. = test: Antimicrobial activity against Salmonella sp. obtained from urine sample of patient assessed as percent susceptible isolates by disk diffusion method; assay type: functional
Serratia marcescens = test: Antimicrobial activity against Serratia marcescens obtained from urine sample of patient assessed as percent susceptible isolates by disk diffusion method; assay type: functional
[4] = tested on: Stenotrophomonas maltophilia; test: Antimicrobial activity against Stenotrophomonas maltophilia obtained from urine sample of patient assessed as percent susceptible isolates by disk diffusion method; assay type: functional
[5] = tested on: Staphylococcus epidermidis; test: Antimicrobial activity against Staphylococcus epidermidis obtained from urine sample of patient assessed as percent susceptible isolates by disk diffusion method; assay type: functional, organism-based
Acinetobacter baumannii = test: Antimicrobial activity against Acinetobacter baumannii obtained from urine sample of patient assessed as percent susceptible isolates by disk diffusion method; assay type: functional
Pseudomonas aeruginosa [6] = test: Antimicrobial activity against Pseudomonas aeruginosa obtained from urine sample of patient assessed as percent susceptible isolates by disk diffusion method; assay type: functional
[7] = tested on: Staphylococcus saprophyticus; test: Antimicrobial activity against Staphylococcus saprophyticus obtained from urine sample of patient assessed as percent susceptible isolates by disk diffusion method; assay type: functional
Enterococcus faecalis = test: Antimicrobial activity against Enterococcus faecalis obtained from urine sample of patient assessed as percent susceptible isolates by disk diffusion method; assay type: functional
Enterococcus faecium = test: Antimicrobial activity against Enterococcus faecium obtained from urine sample of patient assessed as percent susceptible isolates by disk diffusion method; assay type: functional
Streptococcus agalactiae = test: Antimicrobial activity against Streptococcus agalactiae obtained from urine sample of patient assessed as percent susceptible isolates by disk diffusion method; assay type: functional
Klebsiella pneumoniae [8] = test: Antimicrobial activity against colistin-nonsusceptible Klebsiella pneumoniae assessed as percent susceptible isolates by disk diffusion method; assay type: functional
Klebsiella pneumoniae [9] = test: Antimicrobial activity against carbapenemase-nonsusceptible Klebsiella pneumoniae assessed as percent susceptible isolates by disk diffusion method; assay type: functional
Klebsiella pneumoniae [10] = test: Antimicrobial activity against carbapenemase producing Klebsiella pneumoniae assessed as percent susceptible isolates by disk diffusion method; assay type: functional
Pseudomonas aeruginosa [11] = test: Antimicrobial activity against carbapenemase-nonsusceptible Pseudomonas aeruginosa assessed as percent susceptible isolates by disk diffusion method; assay type: functional
Escherichia coli [12] = test: Antimicrobial activity against cefotaxime-, ceftriaxone-, cefepime-, ceftazidime-, and aztreonam-nonsusceptible Escherichia coli assessed as percent susceptible isolates by disk diffusion method; assay type: functional
Klebsiella pneumoniae [13] = test: Antimicrobial activity against cefotaxime-, ceftriaxone-, cefepime-, ceftazidime-, and aztreonam-nonsusceptible Klebsiella pneumoniae assessed as percent susceptible isolates by disk diffusion method; assay type: functional
Enterobacter sp. [14] = test: Antimicrobial activity against cefotaxime-, ceftriaxone-, cefepime-, ceftazidime-, and aztreonam-nonsusceptible Enterobacter sp. assessed as percent susceptible isolates by disk diffusion method; assay type: functional
Pseudomonas aeruginosa [15] = test: Antimicrobial activity against cefotaxime-, ceftriaxone-, cefepime-, ceftazidime-, and aztreonam-nonsusceptible Pseudomonas aeruginosa assessed as percent susceptible isolates by disk diffusion method; assay type: functional
Escherichia coli [16] = test: Antimicrobial activity against […] producing Escherichia coli assessed as percent susceptible isolates by disk diffusion method; assay type: functional
Klebsiella pneumoniae [17] = test: Antimicrobial activity against […] producing Klebsiella pneumoniae assessed as percent susceptible isolates by disk diffusion method; assay type: functional
Klebsiella oxytoca = test: Antimicrobial activity against […] producing Klebsiella oxytoca assessed as percent susceptible isolates by disk diffusion method; assay type: functional
Staphylococcus aureus = test: Antimicrobial activity against Staphylococcus aureus obtained from urine sample of patient assessed as percent susceptible isolates by disk diffusion method; assay type: functional

## C[C@@H]1O[C@@H]1P(=O)(O)O [FOSFOMYCIN]
Escherichia coli [1]
  Activity: 100%
Enterobacter sp. [2]
  Activity: 75%
Klebsiella pneumoniae [3]
  Activity: 82.3%
Proteus mirabilis
  Activity: 96.7%
Salmonella sp.
  Activity: 66.6%
Serratia marcescens
  Activity: 66.6%
[4]
  Activity: 66.6%
[5]
  Activity: Active
Acinetobacter baumannii
  Activity: 9%
Pseudomonas aeruginosa [6]
  Activity: 85%
[7]
  Activity: 100%
Enterococcus faecalis
  Activity: 91.8%
Enterococcus faecium
  Activity: 0%
Streptococcus agalactiae
  Activity: 50%
Klebsiella pneumoniae [8]
  Activity: 58.3%
Klebsiella pneumoniae [9]
  Activity: 60%
Klebsiella pneumoniae [10]
  Activity: 60%
Pseudomonas aeruginosa [11]
  Activity: 88.8%
Escherichia coli [12]
  Activity: 100%
Klebsiella pneumoniae [13]
  Activity: 75%
Enterobacter sp. [14]
  Activity: 100%
Pseudomonas aeruginosa [15]
  Activity: 17%
Escherichia coli [16]
  Activity: 100%
Klebsiella pneumoniae [17]
  Activity: 100%
Klebsiella oxytoca
  Activity: 0%
Staphylococcus aureus
  Activity: 100%
